Values joined by “and” are separate entries in the source; they are usually repeats but may differ in a detail not shown here. Equal values may be shown once.
Legend:
[1] = Multiple rising dose Phase 1 PK, healthy subjects, day 14 (young males unless stated); assay type: in vivo, human
Source text: The steady state AUC geometric mean accumulation ratios were ˜2 in young male subjects and ˜2.8 in elderly subjects (male and female).
Although exposures were similar in middle-aged males when compared to young males, plasma concentrations were higher in elderly compared to middle-aged and young subjects. […] Furthermore, the steady state AUC geometric mean accumulation ratios were ˜2 in young males and ˜2.8 in the elderly.

[2] = Capsule vs tablet single-dose crossover PK, 150 mg, healthy males; assay type: in vivo; conditions: male, human, plasma, oral
Source text: Tmax and the apparent terminal t1/2 were also similar between the two formulations.

[3] = Phase 2b OAB study, trough concentrations; assay type: in vivo, human; conditions: OAB patients
[4] = Moderate hepatic impairment PK, single 100 mg; assay type: in vivo, human; conditions: for half-life: read-out: Apparent terminal t1/2 (converted)
[5] = Phase 2b OAB study, cardiovascular safety (HR, SBP, DBP, orthostatic AEs); assay type: in vivo, human
Source text: None led to discontinuation. The overall incidence of orthostatic symptoms was low.
Small differences in the percent of subjects exceeding categorical heart rate and blood pressure thresholds for vibegron were similar to those in the tolterodine arm.

[6] = Dose-Cmax and dose-AUC models / simulations for 75 mg; design: species or system human
Method: In order to contextualize PK parameters of a 75 mg dose, dose-Cmax and dose-AUC models were created using data from Phase 1 studies.

[7] = biological target: β3-AR (Homo sapiens, UniProt P13945); assay: biochemical
β3-AR, sequence (P13945 whole entry): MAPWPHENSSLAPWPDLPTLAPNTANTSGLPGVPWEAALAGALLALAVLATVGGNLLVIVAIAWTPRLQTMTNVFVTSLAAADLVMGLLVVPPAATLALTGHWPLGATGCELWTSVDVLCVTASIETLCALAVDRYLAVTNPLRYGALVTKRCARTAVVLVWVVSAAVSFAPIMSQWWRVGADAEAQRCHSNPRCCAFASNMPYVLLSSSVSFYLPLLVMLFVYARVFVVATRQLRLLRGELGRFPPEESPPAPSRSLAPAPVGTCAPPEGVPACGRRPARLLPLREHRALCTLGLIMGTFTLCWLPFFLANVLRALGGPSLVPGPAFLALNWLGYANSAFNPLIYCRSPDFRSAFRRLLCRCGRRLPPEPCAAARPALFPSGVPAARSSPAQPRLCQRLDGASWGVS

[8] = human, plasma, oral, 100 mg, healthy matched controls
[9] = human, plasma, oral, 100 mg, moderate hepatic impairment
[10] = 75 mg, log-log regression of multiple-dose exposures

O=C(Nc1ccc(C[C@@H]2CC[C@H]([C@H](O)c3ccccc3)N2)cc1)[C@@H]1CCc2nccc(=O)n21 [Vibegron, (6S)-N-[4-[[(2S,5R)-5-[(R)-hydroxy(phenyl)methyl]pyrrolidin-2-yl]methyl]phenyl]-4-oxo-7,8-dihydro-6H-pyrrolo[1,2-a]pyrimidine-6-carboxamide]
AUC(0-t) ([1]; male, human, plasma, oral, 400 mg, 400 mg QD, read-out: AUC0-24): 10500 ± 2140 ng·h/mL
Cmax ([1]; male, human, plasma, oral, 400 mg, 400 mg QD, read-out: Cmax): 1400 ± 257 ng/mL
half-life ([1]; male, human, plasma, oral, 400 mg, 400 mg QD, read-out: t1/2 (converted)): 58.9 ± 5.9 h
CL renal ([1]; male, human, urine, oral, young males, all dose levels, read-out: renal clearance CLR at steady state): 150 to 187 mL/min
time to steady state ([1]; once daily dosing): ≤ 7 days
AUC higher in females than males ([1]; regardless of age): 50%
AUC(0-inf) ([2]; 1 × 150 mg capsule): 2840 ng·h/mL
Cmax ([2]; 1 × 150 mg capsule): 237 ng/mL
AUC(0-inf) ([2]; 3 × 50 mg tablets): 2660 ng·h/mL
Cmax ([2]; 3 × 50 mg tablets): 213 ng/mL
mean (±SD) Ctrough ([3]; 50 mg QD): 27.4 (±18.3) ng/mL
mean (±SD) Ctrough ([3]; 100 mg QD): 73.6 (±65.5) ng/mL
CL/F ([4]; healthy matched controls): 68.3 L/h
AUC(0-inf) [4, 8]: 1440 ng·h/mL
Cmax [4, 8]: 125 ng/mL
half-life [4, 8]: 92.5 h
AUC(0-inf) [4, 9]: 1820 ng·h/mL
Cmax [4, 9]: 168 ng/mL
Tmax [4, 9]: 1 h
half-life [4, 9]: 94.5 h
CL/F ([4]; moderate hepatic impairment): 56.0 L/h
DBP change from baseline, mean (95% CI) max, week 1 to 8 ([5]; 3 mg): 5.03 (3.92, 6.15) mm Hg
DBP change from baseline, mean (95% CI), week 1 ([5]; 3 mg): −0.37 (−1.69, 0.95) mm Hg
HR change from baseline, mean (95% CI) maximum, week 1 to 8 ([5]; 3 mg): 5.57 (4.25, 6.90) bpm
HR change from baseline, mean (95% CI), week 1 ([5]; 3 mg): 0.36 (−0.90, 1.62) bpm
SBP change from baseline, mean (95% CI) maximum, week 1 to 8 ([5]; 3 mg): 7.14 (5.18, 9.10) mm Hg
SBP change from baseline, mean (95% CI), week 1 ([5]; 3 mg): −0.35 (−2.34, 1.65) mm Hg
DBP change from baseline, mean (95% CI) max, week 1 to 8 ([5]; 15 mg): 6.37 (5.20, 7.53) mm Hg
DBP change from baseline, mean (95% CI), week 1 ([5]; 15 mg): 0.03 (−1.52, 1.59) mm Hg
HR change from baseline, mean (95% CI) maximum, week 1 to 8 ([5]; 15 mg): 6.56 (5.20, 7.92) bpm
HR change from baseline, mean (95% CI), week 1 ([5]; 15 mg): 0.35 (−1.15, 1.85) bpm
SBP change from baseline, mean (95% CI) maximum, week 1 to 8 ([5]; 15 mg): 8.93 (7.18, 10.67) mm Hg
SBP change from baseline, mean (95% CI), week 1 ([5]; 15 mg): −0.34 (−2.46, 1.78) mm Hg
subjects with orthostatic related AEs ([5]; 15 mg): 0.3%
DBP change from baseline, mean (95% CI) max, week 1 to 8 ([5]; 50 mg): 4.19 (3.10, 5.29) mm Hg
DBP change from baseline, mean (95% CI), week 1 ([5]; 50 mg): −0.70 (−2.07, 0.67) mm Hg
HR change from baseline, mean (95% CI) maximum, week 1 to 8 ([5]; 50 mg): 5.49 (4.28, 6.69) bpm
HR change from baseline, mean (95% CI), week 1 ([5]; 50 mg): 0.29 (−0.88, 1.46) bpm
SBP change from baseline, mean (95% CI) maximum, week 1 to 8 ([5]; 50 mg): 7.01 (5.31, 8.70) mm Hg
SBP change from baseline, mean (95% CI), week 1 ([5]; 50 mg): −0.79 (−2.65, 1.08) mm Hg
SBP and DBP change, difference from placebo ([5]; 50 mg and 100 mg, week 1 and maximum over 8 weeks): < 1 mm Hg
DBP change from baseline, mean (95% CI) max, week 1 to 8 ([5]; 100 mg): 4.80 (3.88, 5.72) mm Hg
DBP change from baseline, mean (95% CI), week 1 ([5]; 100 mg): −0.69 (−1.72, 0.34) mm Hg
HR change from baseline, mean (95% CI) maximum, week 1 to 8 ([5]; 100 mg): 6.12 (5.10, 7.15) bpm
HR change from baseline, mean (95% CI), week 1 ([5]; 100 mg): 0.35 (−0.69, 1.38) bpm
SBP change from baseline, mean (95% CI) maximum, week 1 to 8 ([5]; 100 mg): 6.51 (5.09, 7.93) mm Hg
SBP change from baseline, mean (95% CI), week 1 ([5]; 100 mg): −0.77 (−2.22, 0.68) mm Hg
subjects with orthostatic related AEs ([5]; 100 mg): 1.1%
HR mean maximum change over 8 weeks, difference from placebo ([5]; in vivo): < 2 bpm
AUC of 75 mg lower than 200 mg single dose [6]: ~2 fold
AUC of 75 mg lower than 400 mg single dose [6]: ~6 fold
Cmax of 75 mg lower than 200 mg single dose [6]: approximately 3.3 fold
Cmax of 75 mg lower than 400 mg single dose [6]: ~9.2 fold
reduction in Cmax ([6]; 75 mg vs 100 mg): ~40%
calculated AUC (mean±SD) [6, 10]: 1140 ± 476 ng·h/mL
calculated Cmax (mean±SD) [6, 10]: 120 ± 74.7 ng/mL and 120 ng/mL
Cmax ([6]; 100 mg): 206 ng/mL
increase in Cmax ([6]; dose increase from 50 to 100 mg): ~3 fold
IC50 [7]: 193 nM

Reference: patent publication US20210196720A1 (UROVANT SCIENCES GMBH, priority 2018, published 2021)
